How the values were obtained:
Assay type in all cases: in vivo
Abutilon theophrasti [1] = test: greenhouse test, post-emergence treatment, ABUTH; details: 2000 g/ha
Procedure, shortened: (§1)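 Herbicidal effect is rated 0–100, where 100 denotes total destruction of aerial parts and 0 denotes unaffected growth. Treatment occurs once plants reach 3–15 cm in humus-containing loamy sand, with compound applied in water; the trial runs 2–4 weeks at 10–25 °C or 20–35 °C.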

Echinocloa crus-galli [2] = test: greenhouse test, post-emergence treatment, ECHCG; details: post-emergence
Procedure, shortened: as §1

Agrostis stolonifera = test: greenhouse test, post-emergence treatment, AGSST
From the text: (§2) The culture containers used were plastic flowerpots containing loamy sand with approximately 3.0% of humus as the substrate. The seeds of the test plants were sown separately for each species.
(§3) For the post-emergence treatment, the test plants were first grown to a height of 3 to 15 cm, depending on the plant habit, and only then treated with the active ingredients which had been suspended or emulsified in water. For this purpose, the test plants were either sown directly and grown in the same containers, or they were first grown separately as seedlings and transplanted into the test containers a few days prior to treatment.
(§4) Depending on the species, the plants were kept at 10-25° C. or 20-35° C., respectively.
(§5) The test period extended over 2 to 4 weeks. During this time, the plants were tended, and their response to the individual treatments was evaluated.
(§6) Evaluation was carried out using a scale from 0 to 100. 100 means no emergence of the plants, or complete destruction of at least the aerial moieties, and 0 means no damage, or normal course of growth. A good herbicidal activity is given at values of at least 70 and a very good herbicidal activity is given at values of at least 85.
(§7) The plants used in the greenhouse experiments were of the following species: […]

Apera spica-venti [3] = test: greenhouse test, pre-emergence treatment, APESV
Procedure, shortened: (§8)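 Herbicidal effect rated on a 0-100 scale, where 0 is normal growth and 100 is no emergence or destroyed aerial parts, 2 to 4 weeks after soil application at sowing.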

Echinocloa crus-galli [4] = test: greenhouse test, pre-emergence treatment, ECHCG
Procedure, shortened: as §8

Poa annua = test: greenhouse test, pre-emergence treatment, POAAN
From the text: as §2
(§9) For the pre-emergence treatment, the active ingredients, which had been suspended or emulsified in water, were applied directly after sowing by means of finely distributing nozzles. The containers were irrigated gently to promote germination and growth and subsequently covered with transparent plastic hoods until the plants had rooted. This cover caused uniform germination of the test plants, unless this had been impaired by the active ingredients.
as §4, §5, §6, §7

Alopecurus myosuroides [5] = test: greenhouse test, post-emergence treatment, ALOMY; details: post-emergence
Procedure, shortened: as §1

Avena fatua = test: greenhouse test, post-emergence treatment, AVEFA; details: 2000 g/ha
Procedure, shortened: as §1

Matricaria inodora = test: greenhouse test, pre-emergence treatment, MATIN; details: 2000 g/ha
From the text: as §2, §9, §4, §5, §6, §7

Amaranthus retroflexus = test: greenhouse test, post-emergence treatment, AMARE
Procedure, shortened: as §1

Chenopodium album = test: greenhouse test, post-emergence treatment, CHEAL; details: 250 g/ha
From the text: as §2, §3, §4, §5, §6, §7

Lolium multiflorum = test: greenhouse test, post-emergence treatment, LOLMU; details: 500 g/ha
From the text: as §2, §3, §4, §5, §6, §7

Polygonum convolvulus = test: greenhouse test, post-emergence treatment, POLCO; details: 500 g/ha
From the text: as §2, §3, §4, §5, §6, §7

Abutilon theophrasti [6] = test: greenhouse test, pre-emergence treatment, ABUTH; details: 2000 g/ha
From the text: as §2, §9, §4, §5, §6, §7

Apera spica-venti [7] = test: greenhouse test, post-emergence treatment, APESV; details: post-emergence, 2000 g/ha
From the text: as §2, §3, §4, §5, §6, §7

Alopecurus myosuroides [8] = test: greenhouse test, pre-emergence treatment, ALOMY; details: 2000 g/ha
From the text: as §2, §9, §4, §5, §6, §7

Setaria viridis = test: greenhouse test, pre-emergence treatment, SETVI; details: 2000 g/ha
From the text: as §2, §9, §4, §5, §6, §7

**Q.** What does the source list for `C=C(C(=O)OC)c1nc(C2CC2)ncc1-c1ccccc1Cl` [Ex. 221]?
**A.** herbicidal activity (Abutilon theophrasti [1]): very good (a very good herbicidal activity is given at values of at least 85); herbicidal activity (Echinocloa crus-galli [2]; 2000 g/ha): very good (a very good herbicidal activity is given at values of at least 85); herbicidal activity (Agrostis stolonifera; 2000 g/ha): very good (a very good herbicidal activity is given at values of at least 85); herbicidal activity (Apera spica-venti [3]; 2000 g/ha): very good (a very good herbicidal activity is given at values of at least 85); herbicidal activity (Echinocloa crus-galli [4]; 2000 g/ha): very good (a very good herbicidal activity is given at values of at least 85); herbicidal activity (Poa annua; 2000 g/ha): very good (a very good herbicidal activity is given at values of at least 85)

**Q.** For `Clc1ccccc1-c1cnc(C2CC2)nc1-c1cnco1` [Ex. 260], which herbicidal activity (Alopecurus myosuroides [5]; 2000 g/ha) is on record?
**A.** very good (a very good herbicidal activity is given at values of at least 85)

**Q.** And the herbicidal activity (Avena fatua)?
**A.** good (A good herbicidal activity is given at values of at least 70)

**Q.** And the herbicidal activity (Echinocloa crus-galli [2]; 2000 g/ha)?
**A.** good (A good herbicidal activity is given at values of at least 70)

**Q.** And the herbicidal activity (Apera spica-venti [3]; 2000 g/ha)?
**A.** good (A good herbicidal activity is given at values of at least 70)

**Q.** What about the herbicidal activity (Echinocloa crus-galli [4]; 2000 g/ha) of the same compound?
**A.** very good (a very good herbicidal activity is given at values of at least 85)

**Q.** What about the herbicidal activity (Matricaria inodora) of the same compound?
**A.** very good (a very good herbicidal activity is given at values of at least 85)

**Q.** Which results are given for `Cc1nc(C)c(-c2nc(C3CC3)ncc2-c2ccccc2Br)o1` [Ex. 265]?
**A.** herbicidal activity (Alopecurus myosuroides [5]; 250 g/ha): good (A good herbicidal activity is given at values of at least 70); herbicidal activity (Amaranthus retroflexus; 250 g/ha): very good (a very good herbicidal activity is given at values of at least 85); herbicidal activity (Chenopodium album): good (A good herbicidal activity is given at values of at least 70)

**Q.** Which herbicidal activity (Alopecurus myosuroides [5]; 500 g/ha) does the source give for `Cc1ccc(-c2nc(C3CC3)ncc2-c2ccccc2Br)o1` [Ex. 121] here?
**A.** very good (a very good herbicidal activity is given at values of at least 85)

**Q.** And the herbicidal activity (Echinocloa crus-galli [2]; 500 g/ha)?
**A.** very good (a very good herbicidal activity is given at values of at least 85)

**Q.** What about the herbicidal activity (Lolium multiflorum) of the same compound?
**A.** very good (a very good herbicidal activity is given at values of at least 85)

**Q.** And the herbicidal activity (Polygonum convolvulus)?
**A.** very good (a very good herbicidal activity is given at values of at least 85)

**Q.** Which results are given for `Clc1ccccc1-c1cnc(C2CC2)nc1-c1nc2ccccc2[nH]1` [Ex. 297]?
**A.** herbicidal activity (Alopecurus myosuroides [5]; 2000 g/ha): very good (a very good herbicidal activity is given at values of at least 85); herbicidal activity (Avena fatua): very good (a very good herbicidal activity is given at values of at least 85); herbicidal activity (Echinocloa crus-galli [2]; 2000 g/ha): very good (a very good herbicidal activity is given at values of at least 85); herbicidal activity (Abutilon theophrasti [6]): good (A good herbicidal activity is given at values of at least 70); herbicidal activity (Apera spica-venti [3]; 2000 g/ha): very good (a very good herbicidal activity is given at values of at least 85); herbicidal activity (Echinocloa crus-galli [4]; 2000 g/ha): good (A good herbicidal activity is given at values of at least 70)

**Q.** With `CC(O)Cc1nc(C2CC2)ncc1-c1ccccc1Cl` (centres unmarked) [Ex. 105] as the compound, how does the herbicidal activity (Apera spica-venti [7]) read?
**A.** very good (a very good herbicidal activity is given at values of at least 85)

**Q.** And the herbicidal activity (Echinocloa crus-galli [2]; 2000 g/ha)?
**A.** very good (a very good herbicidal activity is given at values of at least 85)

**Q.** What about the herbicidal activity (Alopecurus myosuroides [8]) of the same compound?
**A.** very good (a very good herbicidal activity is given at values of at least 85)

**Q.** And the herbicidal activity (Echinocloa crus-galli [4]; 2000 g/ha)?
**A.** very good (a very good herbicidal activity is given at values of at least 85)

**Q.** Which herbicidal activity (Alopecurus myosuroides [5]; 500 g/ha) does the source give for `OC(c1cccs1)C(O)c1nc(C2CC2)ncc1-c1ccccc1Cl` (centres unmarked) [Ex. 247] here?
**A.** very good (a very good herbicidal activity is given at values of at least 85)

**Q.** And the herbicidal activity (Amaranthus retroflexus; 500 g/ha)?
**A.** very good (a very good herbicidal activity is given at values of at least 85)

**Q.** What about the herbicidal activity (Agrostis stolonifera; 500 g/ha) of the same compound?
**A.** very good (a very good herbicidal activity is given at values of at least 85)

**Q.** And the herbicidal activity (Apera spica-venti [3]; 500 g/ha)?
**A.** very good (a very good herbicidal activity is given at values of at least 85)

**Q.** What about the herbicidal activity (Echinocloa crus-galli [4]; 500 g/ha) of the same compound?
**A.** very good (a very good herbicidal activity is given at values of at least 85)

**Q.** What about the herbicidal activity (Poa annua; 500 g/ha) of the same compound?
**A.** very good (a very good herbicidal activity is given at values of at least 85)

**Q.** What does the source list for `Brc1ccccc1-c1cnc(C2CC2)nc1C1CC1` [Ex. 39]?
**A.** herbicidal activity (Abutilon theophrasti [1]): very good (a very good herbicidal activity is given at values of at least 85); herbicidal activity (Amaranthus retroflexus; 2000 g/ha): very good (a very good herbicidal activity is given at values of at least 85); herbicidal activity (Setaria viridis): very good (a very good herbicidal activity is given at values of at least 85)
